`*C(=O)Nc1ccc(-c2ccc(NC(=O)c3ccc4c(c3)C(=O)N(c3ccc(Oc5ccc(N6C(=O)c7ccc(*)cc7C6=O)cc5-c5ccccc5)c(-c5ccccc5)c3)C4=O)cc2)cc1` (repeat unit) yielded a glass transition temperature of 358.00 °C.

For the molecule `*C(=O)Nc1ccc(-c2ccc(NC(=O)c3ccc4c(c3)C(=O)N(c3ccc(Oc5cccc6c(N7C(=O)c8ccc(*)cc8C7=O)cccc56)cc3)C4=O)cc2)cc1` (repeat unit), the glass transition temperature was determined as 301.00 °C.

In turn, `*C(=O)Nc1ccc(C(=O)c2ccc(NC(=O)c3ccc4c(c3)C(=O)N(c3cccc(P(=O)(c5ccccc5)c5cccc(N6C(=O)c7ccc(*)cc7C6=O)c5)c3)C4=O)cc2)cc1` (repeat unit) registered a glass transition temperature of 238.00 °C.

For `*C(=O)Nc1ccc(C(c2ccc(NC(=O)c3ccc4c(c3)C(=O)N(c3ccc(Oc5ccc6ccc(Oc7ccc(N8C(=O)c9ccc(*)cc9C8=O)cc7)cc6c5)cc3)C4=O)cc2)(C(F)(F)F)C(F)(F)F)cc1` (repeat unit), the glass transition temperature came to 292.00 °C.

Regarding `*C(=O)Nc1ccc(C2(c3ccc(N4C(=O)c5ccc(*)cc5C4=O)cc3)CCCCC2)cc1` (repeat unit), the glass transition temperature was found to be 319.00 °C.

The molecule `*C(=O)Nc1ccc(Cc2ccc(N3C(=O)CC(N4C(=O)c5ccc(*)cc5C4=O)C3=O)cc2)cc1` (repeat unit) displayed a glass transition temperature of 123.00 °C.

`*C(=O)OCCCCCCCCCCCCOC(=O)c1ccc(NC(=O)c2ccc(N3C(=O)c4ccc(*)cc4C3=O)cc2)cc1` (repeat unit) displayed a glass transition temperature of 74.00 °C.

`*C(=O)OCCCCCCCOC(=O)c1ccc(NC(=O)c2ccc(N3C(=O)c4ccc(*)cc4C3=O)cc2)cc1` (repeat unit) returned a glass transition temperature of 106.00 °C.

Turning to `*C(=O)OCCCCCCOC(=O)c1ccc(NC(=O)c2ccc(N3C(=O)c4ccc(*)cc4C3=O)cc2)cc1` (repeat unit), the glass transition temperature was 107.00 °C.

The molecule `*C(=O)OCCCCOC(=O)c1ccc(NC(=O)c2ccc(N3C(=O)c4ccc(*)cc4C3=O)cc2)cc1` (repeat unit) displayed a glass transition temperature of 130.00 °C.

Molecule `*C(=O)c1cc2c(cc1Cl)C(=O)N(c1cccc(N3C(=O)c4cc(*)c(Cl)cc4C3=O)c1)C2=O` (repeat unit) gave a glass transition temperature of 313.00 °C.

On to `*C(=O)c1ccc2c(c1)C(=O)N(c1ccc(-c3ccc(NC(=O)c4cccc(C(=O)Nc5ccc(-c6ccc(N7C(=O)c8ccc(*)cc8C7=O)cc6)cc5)c4)cc3)cc1)C2=O` (repeat unit), for which the glass transition temperature was found to be 238.00 °C.

The molecule `*CCCCCCCCOC(=O)Nc1ccc(Cc2ccc(NC(=O)O*)cc2)cc1` (repeat unit) had a glass transition temperature of 79.00 °C.

Consider `*CCCCOC(=O)Nc1ccc(Cc2ccc(NC(=O)O*)cc2)cc1` (repeat unit), for which the glass transition temperature came out at 109.00 °C.

On to `*CCCOC(=O)Nc1ccc(Cc2ccc(NC(=O)O*)cc2)cc1` (repeat unit), for which the glass transition temperature worked out at 119.00 °C.

`*CCN(CCOC(=O)Nc1ccc(Cc2ccc(NC(=O)O*)cc2)cc1)c1ccc(/N=N/c2ccc([N+](=O)[O-])cc2)cc1` (repeat unit) came in with a glass transition temperature of 136.40 °C.

As to `*CCN(CCOC(=O)Nc1ccc(Cc2ccc(NC(=O)O*)cc2)cc1)c1ccccc1` (repeat unit), the glass transition temperature came out at 31.90 °C.

Take `*CCOC(=O)Nc1ccc(Cc2ccc(NC(=O)OCCOc3ccc(O*)cc3)cc2)cc1` (repeat unit): the glass transition temperature amounted to 98.00 °C.

The molecule `*Cc1ccc2oc(=O)c(C(=O)Nc3ccc(C(c4ccc(NC(=O)c5cc6cc(*)ccc6oc5=O)cc4)(C(F)(F)F)C(F)(F)F)cc3)cc2c1` (repeat unit) yielded a glass transition temperature of 329.00 °C.

`*Nc1ccc(-c2ccc(NC(=O)c3cc(C(*)=O)cc(S(=O)(=O)c4ccccc4)c3)cc2)cc1` (repeat unit): the glass transition temperature came out at 319.00 °C.

`*Nc1ccc(C(=O)c2ccc(NC(=O)c3ccc(C(*)=O)cc3)cc2)cc1` (repeat unit) had a glass transition temperature of 300.00 °C.

For `*Nc1ccc(C(=O)c2ccc(NC(=O)c3cccc(C(*)=O)c3)cc2)cc1` (repeat unit), the glass transition temperature stood at 253.20 °C.

In the case of `*Nc1ccc(C(c2ccc(NC(=O)c3ccc(-c4ccc(C(*)=O)cc4)cc3)cc2)(P2(=O)Oc3ccccc3-c3ccccc32)P2(=O)Oc3ccccc3-c3ccccc32)cc1` (repeat unit), the glass transition temperature worked out at 251.00 °C.

In turn, `*Nc1ccc(C(c2ccc(NC(=O)c3ccc(C(c4ccc(C(*)=O)cc4)(C(F)(F)F)C(F)(F)F)cc3)cc2)(P2(=O)Oc3ccccc3-c3ccccc32)P2(=O)Oc3ccccc3-c3ccccc32)cc1` (repeat unit) showed a glass transition temperature of 235.00 °C.

As to `*Nc1ccc(Cc2ccc(NC(=O)Nc3ccccc3CCc3ccc(NC(*)=O)cc3)cc2)cc1` (repeat unit), the glass transition temperature was determined as 217.00 °C.

In turn, `*Nc1ccc(Cc2ccc(NC(=O)c3cc(C(*)=O)cc(N4C(=O)C5C6C=CC(C6)C5C4=O)c3)cc2)cc1` (repeat unit) had a glass transition temperature of 303.00 °C.

Regarding `*Nc1ccc(Cc2ccc(NC(=O)c3cc(C(*)=O)cc(N4C(=O)C=CC4=O)c3)cc2)cc1` (repeat unit), the glass transition temperature was found to be 287.00 °C.

Regarding `*Nc1ccccc1-c1ccc(NC(=O)c2ccc(C(*)=O)cc2)cc1` (repeat unit), the glass transition temperature is 275.00 °C.

For `*Nc1ccccc1-c1ccc(NC(=O)c2cccc(C(*)=O)c2)cc1` (repeat unit), the glass transition temperature amounted to 248.00 °C.

Molecule `*Nc1ccccc1CCc1ccc(NC(*)=O)cc1` (repeat unit) showed a glass transition temperature of 198.00 °C.

`*OC(=O)Nc1ccc(Cc2ccc(NC(=O)OC3CC4CC(*)CC(C3)O4)cc2)cc1` (repeat unit): the glass transition temperature was found to be 200.00 °C.

For `*OC(COC(=O)Nc1ccc(Cc2ccc(NC(*)=O)cc2)cc1)c1ccco1` (repeat unit), the glass transition temperature is 40.00 °C.

`*Oc1ccc(/N=C/C=N/c2ccc(OC(=O)Nc3ccc(Cc4ccc(NC(*)=O)cc4)cc3)cc2)cc1` (repeat unit): the glass transition temperature turned out to be 133.00 °C.

Molecule `*Oc1ccc(C(=O)Nc2ccc(C(c3ccc(NC(=O)c4ccc(OC(=O)c5ccc(C(*)=O)cc5)cc4)cc3)(C(F)(F)F)C(F)(F)F)cc2)cc1` (repeat unit) displayed a glass transition temperature of 266.00 °C.

For the molecule `*Oc1ccc(C(=O)Nc2ccccc2-c2ccc(NC(=O)c3ccc(*)cc3)cc2)cc1` (repeat unit), the glass transition temperature was 251.00 °C.

In the case of `*Oc1ccc(Oc2ccc(C(=O)c3ccc(NC(=O)c4cccc(C(=O)Nc5ccc(C(=O)c6ccc(*)cc6)cc5)c4)cc3)cc2)cc1` (repeat unit), the glass transition temperature is 198.00 °C.

On to `*Oc1ccc(S(=O)(=O)c2ccc(Oc3ccc(C(=O)c4ccc(-c5ccc(C(=O)c6ccc(*)cc6)cc5)cc4)cc3)cc2)cc1` (repeat unit), for which the glass transition temperature is 207.00 °C.

`*Oc1cccc(Oc2ccc(C(=O)c3ccc(NC(=O)c4ccc(C(=O)Nc5ccc(C(=O)c6ccc(*)cc6)cc5)cc4)cc3)cc2)c1` (repeat unit) returned a glass transition temperature of 190.00 °C.

In turn, `*Oc1cccc(Oc2ccc(C(=O)c3ccc(NC(=O)c4cccc(C(=O)Nc5ccc(C(=O)c6ccc(*)cc6)cc5)c4)cc3)cc2)c1` (repeat unit) had a glass transition temperature of 214.00 °C.

The molecule `*c1ccc(-c2ccc(NC(=O)c3cccc(C(=O)Nc4ccc(-c5ccc(N6C(=O)c7ccc(-c8ccc9c(c8)C(=O)N(*)C9=O)cc7C6=O)cc5)cc4)c3)cc2)cc1` (repeat unit) yielded a glass transition temperature of 230.00 °C.

For `*c1ccc(C(=O)Nc2ccc(-c3cc(Br)ccc3NC(=O)c3ccc(S(*)(=O)=O)cc3)cc2)cc1` (repeat unit), the glass transition temperature was 288.00 °C.

`*c1ccc(C(=O)c2ccc(-n3nc(-c4ccc(Oc5ccc(-c6nn(*)c(=O)c7ccccc67)cc5)cc4)c4ccccc4c3=O)cc2)cc1` (repeat unit) displayed a glass transition temperature of 301.00 °C.

In turn, `*c1ccc(Cc2ccc(NC(=O)c3ccc(Oc4ccc5c(c4)C(=O)N(*)C5=O)cc3)cc2)cc1` (repeat unit) came in with a glass transition temperature of 250.00 °C.

As for `*c1ccc(Cc2ccc(NC(=O)c3ccc(Oc4cccc5c4C(=O)N(*)C5=O)cc3)cc2)cc1` (repeat unit), the glass transition temperature was 258.00 °C.

Consider `*c1ccc(NC(=O)c2ccc(C(=O)Nc3ccc(-c4nnc(*)o4)cc3)c(Oc3ccccc3)c2)cc1` (repeat unit), for which the glass transition temperature was 272.00 °C.

`*c1ccc(NC(=O)c2ccc(OCCOCCOCCOCCOc3ccc(C(=O)Nc4ccc5[nH]c(*)nc5c4)cc3)cc2)cc1` (repeat unit) registered a glass transition temperature of 140.00 °C.

The molecule `*c1ccc(NC(=O)c2ccc(OCCOCCOCCOc3ccc(C(=O)Nc4ccc5[nH]c(*)nc5c4)cc3)cc2)cc1` (repeat unit) displayed a glass transition temperature of 155.00 °C.

With `*c1ccc(NC2CC(=O)N(c3ccc(-c4sc(-c5ccc(N6C(=O)CC(Nc7ccc(-c8nc(-c9ccc(-c%10nc(-c%11ccc([N+](=O)[O-])cc%11)c(-c%11ccc([N+](=O)[O-])cc%11)[nH]%10)cc9)[nH]c8*)cc7)C6=O)cc5)c(-c5ccccc5)c4-c4ccccc4)cc3)C2=O)cc1` (repeat unit), the glass transition temperature is 152.00 °C.

Turning to `*c1ccc(Oc2ccc(C(=O)c3ccc(-c4ccc(C(=O)c5ccc(Oc6ccc(-c7nc(-c8ccc(-c9nc(*)c(-c%10ccccc%10)[nH]9)cc8)[nH]c7-c7ccccc7)cc6)cc5)cc4)cc3)cc2)cc1` (repeat unit), the glass transition temperature was determined as 273.00 °C.

As to `*c1ccc(Oc2ccc(C(=O)c3ccc(-c4ccc(C(=O)c5ccc(Oc6ccc(-c7nc(-c8cccc(-c9nc(*)c(-c%10ccccc%10)[nH]9)c8)[nH]c7-c7ccccc7)cc6)cc5)cc4)cc3)cc2)cc1` (repeat unit), the glass transition temperature turned out to be 276.00 °C.

In turn, `*c1ccc(Oc2ccc(C(=O)c3ccc(-c4ccc(C(=O)c5ccc(Oc6ccc(-c7nc(-c8ccccc8)[nH]c7*)cc6)cc5)cc4)cc3)cc2)cc1` (repeat unit) returned a glass transition temperature of 258.00 °C.

In turn, `*c1cccc(C(=O)Nc2ccc(Cc3ccc(N4C(=O)c5ccc(S(=O)(=O)c6ccc7c(c6)C(=O)N(c6ccc(Cc8ccc(NC(=O)c9cccc(-c%10nc%11cc(-c%12ccc%13[nH]c(*)nc%13c%12)ccc%11[nH]%10)c9)cc8)cc6)C7=O)cc5C4=O)cc3)cc2)c1` (repeat unit) displayed a glass transition temperature of 270.00 °C.
